The text below walks through data of PubChem BioAssay AID298 (DTP/NCI, 2004).

Several values for one entry are separate records, joined by “and”; a condition that tells them apart may be missing. Identical values can stand only once. Records with an inconclusive call do not appear.

In the assay the test system is MX-1 breast xenograft, intrarenal, nude mice, tumor weight. Description: NCI In Vivo Anticancer Drug Screen. Data for tumor model Human Mammary Carcinoma MX-1 Xenograft (intrarenal inoculation) in NU/NU BALB/C (nude) mice. To be noted: endpoint: mean tumor weight change, higher = larger tumour. The method, boiled down:
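Mice w/ transplanted tumors, drug vs vehicle; endpoint survival or tumor size; value = T/C.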

Setting [1] is: dose: 150.0 mg/kg/injection, schedule: Q04DX003 (ip), vehicle: Klucel (hydroxypropylcellulose) (HPC).
[2] abbreviates: dose: 300.0 mg/kg/injection, schedule: Q04DX003 (ip), vehicle: saline with Tween-80.
Setting [3] is: dose: 600.0 mg/kg/injection, schedule: Q04DX003 (ip), vehicle: saline with Tween-80.
The mark [4] stands for this setting: dose: 150.0 mg/kg/injection, schedule: Q04DX003 (ip), vehicle: saline with Tween-80.

`CCC1(O)C(=O)OCc2c1cc1n(c2=O)Cc2cc3cc(N)ccc3nc2-1` (stereo unspecified): the T/C by setting is: (dose: 1.88 mg/kg/injection, schedule: Q04DX003 (ip), vehicle: suspension in saline) 5 % of control; (dose: 3.75 mg/kg/injection, schedule: Q04DX003 (ip), vehicle: suspension in saline) 1 % of control; (dose: 7.5 mg/kg/injection, schedule: Q04DX003 (ip), vehicle: suspension in saline) -100 % of control; (dose: 15.0 mg/kg/injection, schedule: Q04DX003 (ip), vehicle: suspension in saline) -100 % of control.

As for `CN1C2C=CC(=O)C1C1C(=O)N(c3ccccc3)C(=O)C12` (stereo unspecified), the T/C is 105 % of control (dose: 100.0 mg/kg/injection, schedule: Q04DX003 (ip), vehicle: Klucel (hydroxypropylcellulose) (HPC)) and 77 % of control (dose: 200.0 mg/kg/injection, schedule: Q04DX003 (ip), vehicle: Klucel (hydroxypropylcellulose) (HPC)).

For the molecule `COC1/C=C/C=C(/C)Cc2cc(O)c(Cl)c(c2)N(C)C(=O)CC(OC(=O)C(C)C)C2(C)OC2C(C)C2CC1(O)NC(=O)O2` (stereo unspecified), the T/C reads like this: (dose: 1.0 mg/kg/injection, schedule: Q04DX003 (sc), vehicle: saline + alcohol) 70 % of control; (dose: 2.0 mg/kg/injection, schedule: Q04DX003 (sc), vehicle: saline + alcohol) 33 % of control; (dose: 4.0 mg/kg/injection, schedule: Q04DX003 (sc), vehicle: saline + alcohol) -47 % of control; (dose: 8.0 mg/kg/injection, schedule: Q04DX003 (sc), vehicle: saline + alcohol) -100 % of control.

As for `COC1=C(C)C(=O)C2=C(C1=O)C(CO)N1C(C#N)C3CC4C(C1C2N1CCOC41)N3C` (stereo unspecified), the T/C was 55 % of control (dose: 0.9 mg/kg/injection, schedule: Q04DX003 (ip), vehicle: acid diluted with saline); 35 % of control (dose: 1.25 mg/kg/injection, schedule: Q04DX003 (ip), vehicle: acid diluted with saline); 19 % of control (dose: 1.5 mg/kg/injection, schedule: Q04DX003 (ip), vehicle: acid diluted with saline); 17 % of control and 19 % of control (dose: 2.5 mg/kg/injection, schedule: Q04DX003 (ip), vehicle: acid diluted with saline); 50 % of control (dose: 2.5 mg/kg/injection, schedule: Q04DX003 (ip), vehicle: saline + alcohol); 42 % of control (dose: 5.0 mg/kg/injection, schedule: Q04DX003 (ip), vehicle: saline + alcohol).

For the molecule `NC(Cc1ccccc1)C(=O)OCN1C(=O)C2C3C=CC(C2C1=O)C1C2C(=O)N(COC(=O)C(N)Cc4ccccc4)C(=O)C2C31` (stereo unspecified), the T/C is 76 % of control (dose: 21.6 mg/kg/injection, schedule: Q01DX009 (ip), vehicle: water); 94 % of control (dose: 25.0 mg/kg/injection, schedule: Q04DX003 (ip), vehicle: other); 57 % of control (dose: 30.9 mg/kg/injection, schedule: Q01DX009 (ip), vehicle: water); 111 % of control (dose: 44.1 mg/kg/injection, schedule: Q01DX009 (ip), vehicle: water); 86 % of control (dose: 50.0 mg/kg/injection, schedule: Q04DX003 (ip), vehicle: other); 52 % of control (dose: 63.0 mg/kg/injection, schedule: Q01DX009 (ip), vehicle: water). Moreover, the T/C is, setting by setting: (dose: 90.0 mg/kg/injection, schedule: Q01DX009 (ip), vehicle: water) 24 % of control; (dose: 100.0 mg/kg/injection, schedule: Q04DX003 (ip), vehicle: other) 65 % of control; (dose: 200.0 mg/kg/injection, schedule: Q04DX003 (ip), vehicle: other) 39 % of control.

With `Oc1c(Cl)cc(Cl)cc1C=NCCSc1ccc(Cl)cc1`, the T/C reads like this: under setting [1], 99 % of control and 112 % of control; (dose: 300.0 mg/kg/injection, schedule: Q04DX003 (ip), vehicle: Klucel (hydroxypropylcellulose) (HPC)) 95 % of control; (dose: 600.0 mg/kg/injection, schedule: Q04DX003 (ip), vehicle: Klucel (hydroxypropylcellulose) (HPC)) 104 % of control and 107 % of control.

For the molecule `N=C(N)c1nn(C2OC(CO)C(O)C2O)c2nc[nH]c(=O)c12` (stereo unspecified), the T/C is 92 % of control (dose: 12.5 mg/kg/injection, schedule: Q04DX003 (ip), vehicle: Klucel + Tween-80); 42 % of control (dose: 25.0 mg/kg/injection, schedule: Q04DX003 (ip), vehicle: Klucel + Tween-80); 95 % of control (dose: 25.0 mg/kg/injection, schedule: Q04DX003 (ip), vehicle: distilled water + Tween-80 + alcohol); 83 % of control (dose: 50.0 mg/kg/injection, schedule: Q04DX003 (ip), vehicle: distilled water + Tween-80 + alcohol); 36 % of control (dose: 75.0 mg/kg/injection, schedule: Q04DX003 (ip), vehicle: Klucel + Tween-80); 4 % of control (dose: 100.0 mg/kg/injection, schedule: Q04DX003 (ip), vehicle: distilled water + Tween-80 + alcohol). For the same molecule, the T/C (dose: 125.0 mg/kg/injection, schedule: Q04DX003 (ip), vehicle: Klucel + Tween-80) was 9 % of control.

For `S=C(NCNC(=S)c1ccncc1)c1ccncc1`, the T/C was 97 % of control under setting [2] and 40 % of control under setting [3].

For `COc1ccc(O)cc1`, the T/C reads like this: (dose: 50.0 mg/kg/injection, schedule: Q04DX003 (ip), vehicle: saline with Tween-80) 76 % of control; (dose: 100.0 mg/kg/injection, schedule: Q04DX003 (ip), vehicle: saline with Tween-80) 87 % of control; (dose: 200.0 mg/kg/injection, schedule: Q04DX003 (ip), vehicle: saline with Tween-80) 79 % of control; (dose: 400.0 mg/kg/injection, schedule: Q04DX003 (ip), vehicle: saline with Tween-80) 53 % of control.

As for `O=c1n(CC2CO2)c(=O)n(CC2CO2)n1CC1CO1` (stereo unspecified), the T/C by setting is: (dose: 9.38 mg/kg/injection, schedule: Q04DX003 (sc), vehicle: suspension in saline) 46 % of control; (dose: 18.75 mg/kg/injection, schedule: Q04DX003 (sc), vehicle: suspension in saline) 20 % of control; (dose: 37.5 mg/kg/injection, schedule: Q04DX003 (sc), vehicle: suspension in saline) 12 % of control.

Take `Cc1cc2c(C(C)C)c(O)c(O)c(C=NCCO)c2c(O)c1-c1c(C)cc2c(C(C)C)c(O)c(O)c(C=NCCO)c2c1O`: the T/C was 111 % of control (dose: 75.0 mg/kg/injection, schedule: Q04DX003 (ip), vehicle: saline with Tween-80); 86 % of control under setting [4]; 58 % of control under setting [2]; 97 % of control under setting [3]; 69 % of control (dose: 1200.0 mg/kg/injection, schedule: Q04DX003 (ip), vehicle: saline with Tween-80).

On to `CC1=C(C(N)=O)C(c2ccccc2)NC(=S)N1` (stereo unspecified), for which, under setting [1], the T/C is 87 % of control.

With `O=P(O)(NCCCl)NCCCl`, under “dose: 37.5 mg/kg/injection, schedule: Q04DX003 (sc), vehicle: saline”, the T/C is 31 % of control.

As for `COc1cc2c(cc1OC)-c1c3c(cc4c1[C@@H](C2)N(C)CC4)OCO3`, the T/C reads like this: (dose: 37.5 mg/kg/injection, schedule: Q04DX003 (ip), vehicle: distilled water + alcohol) 56 % of control; (dose: 75.0 mg/kg/injection, schedule: Q04DX003 (ip), vehicle: distilled water + alcohol) 55 % of control; (dose: 150.0 mg/kg/injection, schedule: Q04DX003 (ip), vehicle: distilled water + alcohol) 68 % of control.

On to `Cc1ccc2c(c1)n([O-])c1cc(Cl)ccc1[n+]2=O`, for which the T/C was 84 % of control and 86 % of control under setting [4]; 56 % of control and 66 % of control under setting [2].

As for `Cc1noc2nc(-c3ccccc3)cc(N3CCN(C)CC3)c12`, the T/C runs as follows: (dose: 75.0 mg/kg/injection, schedule: Q04DX003 (ip), vehicle: other) 83 % of control; (dose: 150.0 mg/kg/injection, schedule: Q04DX003 (ip), vehicle: other) 120 % of control; (dose: 300.0 mg/kg/injection, schedule: Q04DX003 (ip), vehicle: other) 92 % of control.

`CC(NNC(=S)N(C)C1CCCCC1)c1cc2ccccc2cn1` (stereo unspecified): the T/C (dose: 150.0 mg/kg/injection, schedule: Q04DX003 (ip), vehicle: saline) is 80 % of control.

For the molecule `NC(=S)N/N=C/c1ncccc1O`, the T/C is 86 % of control (dose: 150.0 mg/kg/injection, schedule: Q04DX003 (ip), vehicle: suspension in saline) and 93 % of control (dose: 300.0 mg/kg/injection, schedule: Q04DX003 (ip), vehicle: suspension in saline).

Regarding `NC(CSSCC(N)C(=O)O)C(=O)O` (stereo unspecified), the T/C reads like this: (dose: 300.0 mg/kg/injection, schedule: Q04DX003 (ip), vehicle: saline) 88 % of control; (dose: 600.0 mg/kg/injection, schedule: Q04DX003 (ip), vehicle: saline) 92 % of control; (dose: 1200.0 mg/kg/injection, schedule: Q04DX003 (ip), vehicle: saline) 104 % of control; (dose: 2400.0 mg/kg/injection, schedule: Q04DX003 (ip), vehicle: saline) 80 % of control.
